The values that follow come from patent US20120022078A1, “ARYL INDOLE DERIVATIVES” (MSD K.K., priority 2010, published 2012).

The experiment has as its target T1, human QRFP receptor (GPR103) (Homo sapiens, UniProt Q96P65).
T1 construct: expressed in transfected cells; host or cells: NFAT β-Lactamase CHO-K1 host cells (Aurora); membrane specimen
T1 sequence (Q96P65 1-431): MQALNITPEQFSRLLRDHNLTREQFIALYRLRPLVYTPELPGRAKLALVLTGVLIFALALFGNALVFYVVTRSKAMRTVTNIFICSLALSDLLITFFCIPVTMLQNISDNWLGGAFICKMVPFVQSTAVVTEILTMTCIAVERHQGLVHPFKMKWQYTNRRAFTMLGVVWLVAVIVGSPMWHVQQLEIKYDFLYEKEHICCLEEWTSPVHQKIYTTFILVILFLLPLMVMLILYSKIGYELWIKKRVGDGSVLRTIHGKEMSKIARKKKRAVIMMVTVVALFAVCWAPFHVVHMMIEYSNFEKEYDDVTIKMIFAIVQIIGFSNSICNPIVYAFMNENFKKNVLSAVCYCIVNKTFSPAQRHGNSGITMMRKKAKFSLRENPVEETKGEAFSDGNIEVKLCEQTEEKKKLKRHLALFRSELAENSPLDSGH
Nature of the experiment: QRFP43 binding inhibition test ([125I]QRFP43, membranes of GPR103-expressing CHO-K1 cells). As to conditions: membrane specimen from QRFP receptor (GPR103) expressing cells, 25° C., 1 hour, 20,000 cpm [125I]QRFP43; read-out: IC50 (50% inhibition concentration for the specific [125I] QRFP43 binding). An excerpt:
The cDNA sequence [Accession No. NM_198179] that codes for human QRFP receptor (GPR103) was cloned into an expression vector pEF1V5-HisB (Invitrogen). The expression vector so prepared was transfected into NFAT β-Lactamase CHO-K1 host cells (Aurora) to obtain QRFP receptor (GPR103) expressing cells, using the cationic lipid method [see Proceedings of the National Academy of Sciences of the United States of America, Vol. 84, p. 7413 (1987)].
The membrane specimen prepared from the QRFP receptor (GPR103) expressing cells was incubated at 25° C. for 1 hour with a test compound and 20,000 cpm [^125I ] QRFP43 (PerkinElmer, Inc.) in an assay buffer (50 mM Tris-HCl, 1 mM EDTA, and 0.1% BSA, pH 7.4), followed by filtration using a glass filter GF/C. After washing with a 50 mM Tris-HCl (containing 2 mM EDTA, 10 mM MgCl2, and 0.04% Tween-20) buffer at pH 7.4, the radioactivity on the glass filter was determined using a gamma counter. Non-specific binding was measured in the presence of 1 μM peptide QRFP43, and 50% inhibition concentration (IC50 value) of the test compound for the specific [^125I] QRFP43 binding was determined [see Endocrinology, Vol. 131, p. 2090 (1992)].
As to `CN1CCN(Cc2cnc(-c3cc4ccccc4n3C)s2)CC1` [Example 1, 1-Methyl-2-{5-[(4-methylpiperazin-1-yl)methyl]-1,3-thiazol-2-yl}-1H-indole], the IC50 is 49.8 nM.
Turning to `CN1CCN(Cc2cc(-c3cc4ccccc4n3C)ncc2F)CC1` [Example 2], the IC50 came to 33.1 nM.
The figure for `CN1CCN(Cc2ccc(F)c(-c3cc4ccccc4n3C)c2)CC1` [Example 3, 2-{2-Fluoro-5-[(4-methylpiperazin-1-yl)methyl]phenyl}-1-methyl-1H-indole] is 48.3 nM; for `CN1CCN(Cc2cnc(F)c(-c3cc4ccccc4n3C)c2)CC1` [Example 4] it is 52.5 nM; for `CN1CCN(Cc2cncc(-c3cc4ccccc4n3C)c2)CC1` [Example 5, 1-Methyl-2-{5-[(4-methylpiperazin-1-yl)methyl]pyridin-3-yl}-1H-indole] it is 111 nM.
